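Briefly, cells in 96-well plates were exposed to five compound concentrations for 48 h, and endpoints were estimated by linear interpolation. GI50 marks 50% less growth.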 Active and inactive are the calls of the source. No stated cut-off is given here; in the data, active = GI50 up to about 1.1 µM and inactive = higher.
Assays:
Experiment in all cases: NCI tumour cell line growth inhibition, 48 h
SNB-78 = test system: SNB-78
SF-539 = test system: SF-539
ACHN = test system: ACHN
RXF 631 = test system: RXF 631
SK-MEL-5 = test system: SK-MEL-5
MOLT-4 = test system: MOLT-4
KM12 = test system: KM12
Malme-3M = test system: Malme-3M
SK-OV-3 = test system: SK-OV-3
LXFL 529 = test system: LXFL 529
M19-MEL = test system: M19-MEL
NCI-H522 = test system: NCI-H522
NCI-H23 = test system: NCI-H23
HT-29 = test system: HT-29
OVCAR-4 = test system: OVCAR-4
UACC-62 = test system: UACC-62
HCT-116 = test system: HCT-116
COLO 205 = test system: COLO 205
LOX IMVI = test system: LOX IMVI
HCT-15 = test system: HCT-15
SW-620 = test system: SW-620
RXF 393 = test system: RXF 393
SK-MEL-2 = test system: SK-MEL-2
KM-20L2 = test system: KM-20L2
TK-10 = test system: TK-10
DMS-273 = test system: DMS-273
K562 = test system: K562
A498 = test system: A498
UACC-257 = test system: UACC-257
UO-31 = test system: UO-31
786-0 = test system: 786-0
OVCAR-3 = test system: OVCAR-3
NCI-H460 = test system: NCI-H460
SK-MEL-28 = test system: SK-MEL-28
OVCAR-5 = test system: OVCAR-5
HCC 2998 = test system: HCC 2998
SNB-19 = test system: SNB-19
XF498 = test system: XF498
DLD-1 = test system: DLD-1
OVCAR-8 = test system: OVCAR-8
DMS-114 = test system: DMS-114
IGROV-1 = test system: IGROV-1
SN12C = test system: SN12C
HL-60 = test system: HL-60
M14 = test system: M14
EKVX = test system: EKVX
RPMI-8226 = test system: RPMI-8226
U-251 = test system: U-251
SNB-75 = test system: SNB-75
CAKI-1 = test system: CAKI-1
HOP-62 = test system: HOP-62
CCRF-CEM = test system: CCRF-CEM
HOP-92 = test system: HOP-92
A549 = test system: A549
SF-268 = test system: SF-268
NCI-H226 = test system: NCI-H226

N#Cc1cc([N+](=O)[O-])ccc1NC(=O)C(=O)Nc1n[nH]c(N)n1
GI50 (SNB-78): > 100 µM (inactive) | GI50 (SF-539): > 100 µM (inactive) | GI50 (ACHN): > 100 µM (inactive) | GI50 (RXF 631): > 100 µM (inactive) | GI50 (SK-MEL-5): > 100 µM (inactive) | GI50 (MOLT-4): > 100 µM (inactive) | GI50 (KM12): > 100 µM (inactive) | GI50 (Malme-3M): > 100 µM (inactive) | GI50 (SK-OV-3): > 100 µM (inactive) | GI50 (LXFL 529): > 100 µM (inactive) | GI50 (M19-MEL): > 100 µM (inactive) | GI50 (NCI-H522): > 100 µM (inactive) | GI50 (NCI-H23): > 100 µM (inactive) | GI50 (HT-29): > 100 µM (inactive) | GI50 (OVCAR-4): > 100 µM (inactive) | GI50 (UACC-62): > 100 µM (inactive) | GI50 (HCT-116): > 100 µM (inactive) | GI50 (COLO 205): > 100 µM (inactive) | GI50 (LOX IMVI): > 100 µM (inactive) | GI50 (HCT-15): > 100 µM | GI50 (SW-620): > 100 µM (inactive) | GI50 (RXF 393): > 100 µM (inactive) | GI50 (SK-MEL-2): > 100 µM (inactive) | GI50 (KM-20L2): > 100 µM (inactive) | GI50 (TK-10): > 100 µM (inactive) | GI50 (DMS-273): > 100 µM (inactive) | GI50 (K562): > 100 µM (inactive) | GI50 (A498): > 100 µM (inactive) | GI50 (UACC-257): > 100 µM (inactive) | GI50 (UO-31): > 100 µM (inactive) | GI50 (786-0): > 100 µM (inactive) | GI50 (OVCAR-3): > 100 µM (inactive) | GI50 (NCI-H460): > 100 µM (inactive) | GI50 (SK-MEL-28): > 100 µM (inactive) | GI50 (OVCAR-5): > 100 µM (inactive) | GI50 (HCC 2998): > 100 µM (inactive) | GI50 (SNB-19): > 100 µM (inactive) | GI50 (XF498): > 100 µM (inactive) | GI50 (DLD-1): > 100 µM (inactive) | GI50 (OVCAR-8): > 100 µM (inactive) | GI50 (DMS-114): > 100 µM (inactive) | GI50 (IGROV-1): > 100 µM (inactive) | GI50 (SN12C): > 100 µM (inactive) | GI50 (HL-60): > 100 µM (inactive) | GI50 (M14): > 100 µM (inactive) | GI50 (EKVX): > 100 µM (inactive) | GI50 (RPMI-8226): > 100 µM (inactive) | GI50 (U-251): > 100 µM (inactive) | GI50 (SNB-75): > 100 µM (inactive) | GI50 (CAKI-1): > 100 µM (inactive) | GI50 (HOP-62): > 100 µM (inactive) | GI50 (CCRF-CEM): > 100 µM (inactive) | GI50 (HOP-92): > 100 µM (inactive) | GI50 (A549): > 100 µM (inactive) | GI50 (SF-268): > 100 µM (inactive) | GI50 (NCI-H226): 86.3 µM (inactive)
